The source of these data is ChEMBL document CHEMBL1201862, “PubChem BioAssay data set” (2004).

The GI50 is the concentration that inhibits growth by half.

Test systems include SNB-75; Malme-3M; A549; UO-31; T47D; KM12; MDA-MB-231; ACHN; RPMI-8226; OVCAR-3; TK-10; M14; COLO 205; SK-MEL-28; A498; SN12C; K562; LOX IMVI; HOP-92.
Common to all, as to test: DTP human tumour cell line panel, 48 h

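Test compounds were applied to cells in 96-well plates for 48 hours at 5 doses. GI50: concentration for 50% inhibition of growth.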 Calls of active or inactive are those of the source. Cut-off read from the data, not from the text of the source: active = GI50 up to about 1.1 µM and inactive = higher.

Consider `COC1C(OC(N)=O)C(O)C(Oc2ccc3c(O)c(NC(=O)c4ccc(O)c(CC=C(C)C)c4)c(=O)oc3c2C)OC1(C)C` (stereo not given), for which the GI50 with SNB-75 was > 100 µM (inactive); in the experiment with Malme-3M, > 100 µM (inactive); with A549, > 100 µM (inactive); in the experiment with UO-31, > 100 µM (inactive); in the experiment with T47D it was > 100 µM (inactive); with KM12, 63 µM (inactive). Also, the GI50 with MDA-MB-231 is > 100 µM (inactive); in the experiment with ACHN, > 100 µM (inactive); in the experiment on RPMI-8226, 28.4 µM (inactive); in the experiment on OVCAR-3, > 100 µM (inactive); in the experiment with TK-10, > 10 µM (inactive); in the experiment on M14 it was > 100 µM (inactive). Besides, the GI50 was > 100 µM (inactive) in the experiment on COLO 205; 73.8 µM (inactive) in the experiment with SK-MEL-28; > 100 µM (inactive) with A498; > 100 µM (inactive) with SN12C; > 100 µM (inactive) in the experiment on K562.
Turning to `O=C1CC(c2cccc(Cl)c2)Nc2ccc(N3CCCC3)cc21` (stereo not given), the GI50 with LOX IMVI was 0.0518 µM (active); in the experiment on A549, 0.0494 µM (active); with UO-31 it was 0.0603 µM (active); with T47D, > 100 µM (inactive); with HOP-92, 0.373 µM (active); in the experiment on KM12 it was 0.361 µM (active). Moreover, the GI50 with MDA-MB-231 was 0.366 µM (active); with ACHN, 0.0524 µM (active); in the experiment with RPMI-8226 it was 0.0802 µM (active); with OVCAR-3 it was 0.158 µM (active); in the experiment on TK-10, 0.942 µM (active); in the experiment with M14, 0.028 µM (active). Moreover, the GI50 in the experiment on COLO 205 is 0.194 µM (active); in the experiment on SK-MEL-28, 0.189 µM (active); with A498, 0.01 µM (active); in the experiment with SN12C, 0.0552 µM (active); with K562 it was 0.0863 µM (active).
On to `C=C(Br)CNC(=O)CCC(=O)NCC(=C)Br`, for which the GI50 in the experiment with SNB-75, in the experiment with Malme-3M, in the experiment with LOX IMVI, in the experiment on A549, with UO-31 and with T47D was > 100 µM (inactive) in each case. In addition, the GI50 in the experiment with KM12, in the experiment with MDA-MB-231, in the experiment with ACHN, in the experiment with RPMI-8226, with OVCAR-3 and in the experiment on TK-10 was > 100 µM (inactive) in each case. Further, the GI50 with M14, in the experiment with COLO 205, in the experiment on SK-MEL-28, in the experiment with A498, with SN12C and in the experiment with K562 was > 100 µM (inactive) each time.
As for `O=C(O)c1c[nH]c2c(Sc3ccccc3)nccc2c1=O`, the GI50 was > 100 µM (inactive) in the experiment with SNB-75; 44.2 µM (inactive) in the experiment on LOX IMVI; > 100 µM (inactive) in the experiment on A549; > 100 µM (inactive) with UO-31; > 100 µM (inactive) in the experiment on T47D; > 100 µM (inactive) in the experiment with HOP-92. Further, the GI50 in the experiment with KM12 is 39.9 µM (inactive); in the experiment on MDA-MB-231, > 100 µM (inactive); with ACHN, > 100 µM (inactive); in the experiment on OVCAR-3, > 100 µM (inactive); with TK-10, > 100 µM (inactive); with M14 it was > 100 µM (inactive). Further, the GI50 with COLO 205, in the experiment with SK-MEL-28, in the experiment on A498 and with SN12C was > 100 µM (inactive) throughout.
As for `CC1=C(C(=O)NNC(=O)CC#N)CC(C(=O)NNC(=O)CC#N)=C(C)N1`, the GI50 in the experiment with SNB-75 is > 100 µM (inactive); with LOX IMVI, > 100 µM (inactive); with A549 it was > 100 µM (inactive); with UO-31, > 100 µM (inactive); in the experiment on T47D, 93.3 µM (inactive); with HOP-92, > 100 µM (inactive). The GI50 in the experiment with KM12, in the experiment on MDA-MB-231, in the experiment on ACHN, in the experiment with OVCAR-3, in the experiment with TK-10 and with M14 was > 100 µM (inactive) in each case. Moreover, the GI50 in the experiment with COLO 205, in the experiment with SK-MEL-28, with A498 and with SN12C was > 100 µM (inactive) each time.
As to `CC(C)CCCC(C)[C@H]1CC[C@H]2[C@@H]3CC[C@H]4C[C@@H](CCC=C(c5cc(Cl)c(O)c(C(=O)OC(C)C)c5)c5cc(Cl)c(O)c(C(=O)OC(C)C)c5)CC[C@]4(C)[C@H]3CC[C@]12C` (stereo not given in full), the GI50 with SNB-75, in the experiment on LOX IMVI, with A549, in the experiment with T47D, in the experiment on HOP-92 and with KM12 was > 50 µM (inactive) in each case. Moreover, the GI50 with MDA-MB-231, in the experiment with RPMI-8226, with OVCAR-3, in the experiment on M14, in the experiment on COLO 205 and with SK-MEL-28 was > 50 µM (inactive) throughout. The GI50 with A498, in the experiment on SN12C and with K562 was > 50 µM (inactive) each time.
As for `COc1ccc(/N=N/C(=N\c2ccc(F)cc2)c2ccc(N(CCC#N)CCC#N)cc2)cc1`, the GI50 in the experiment with SNB-75 is 24 µM (inactive); with A549 it was 18.7 µM (inactive); in the experiment on UO-31 it was 68.5 µM (inactive); in the experiment on T47D, 11.2 µM (inactive); in the experiment with HOP-92, 25.6 µM (inactive); with KM12 it was 16.9 µM (inactive). Further, the GI50 is 14.3 µM (inactive) in the experiment with MDA-MB-231; 82.8 µM (inactive) with ACHN; 39.2 µM (inactive) with RPMI-8226; 30.9 µM (inactive) with OVCAR-3; 46.5 µM (inactive) in the experiment with TK-10; 28.6 µM (inactive) with M14. Also, the GI50 in the experiment on COLO 205 was 39.2 µM (inactive); in the experiment on SK-MEL-28, 39 µM (inactive); in the experiment on A498, 21.4 µM (inactive); with SN12C, 31.8 µM (inactive); with K562 it was 27.6 µM (inactive).
With `Cc1nn(C(=O)c2ccccc2O)c2c1C(c1ccc(O)cc1)SC(=N)N2` (stereo not given), the GI50 with SNB-75 is 0.74 µM (active); in the experiment on Malme-3M, 0.601 µM (active); in the experiment with LOX IMVI, 1.36 µM (inactive); in the experiment with A549, 1.26 µM (inactive); in the experiment with UO-31 it was 7.55 µM (inactive); with T47D it was 1.23 µM (inactive). Further, the GI50 in the experiment with KM12 is > 2.15 µM (inactive); in the experiment with MDA-MB-231, > 3.18 µM (inactive); with ACHN, 0.951 µM (active); in the experiment on OVCAR-3, > 2.66 µM (inactive); in the experiment on TK-10, > 2.52 µM (inactive); in the experiment with M14, > 2.86 µM (inactive). The GI50 is > 6.93 µM (inactive) with COLO 205; > 10 µM (inactive) in the experiment on SK-MEL-28; 3.06 µM (inactive) in the experiment with A498; 1.79 µM (inactive) in the experiment on SN12C; 0.955 µM (active) in the experiment on K562.
For the compound `O=C(CCCN1CCC2(CC1)CC(=O)N(N1CCOCC1)C2=O)c1ccc(F)cc1`, the GI50 in the experiment on SNB-75, with Malme-3M, in the experiment on LOX IMVI, with A549, in the experiment on UO-31 and in the experiment with T47D was > 100 µM (inactive) each time. Further, the GI50 in the experiment on KM12, with MDA-MB-231, with ACHN, in the experiment with RPMI-8226, in the experiment on OVCAR-3 and with TK-10 was > 100 µM (inactive) in each case. In addition, the GI50 with M14, with COLO 205, in the experiment on SK-MEL-28, in the experiment on A498, in the experiment with SN12C and in the experiment with K562 was > 100 µM (inactive) each time.
On to `CN(C)CCNC(=O)c1cccc2c(NC(CS)C(=O)O)c3ccccc3[n+](C)c12` (stereo not given), for which the GI50 in the experiment on SNB-75 was 41.6 µM (inactive); in the experiment with Malme-3M it was 30.2 µM (inactive); in the experiment on LOX IMVI, 32.8 µM (inactive); with A549 it was 62.1 µM (inactive); with UO-31, 71.8 µM (inactive); in the experiment with T47D, 64.9 µM (inactive). In addition, the GI50 in the experiment with KM12 is > 100 µM (inactive); with MDA-MB-231, 41.4 µM (inactive); in the experiment on ACHN, 35.5 µM (inactive); in the experiment on RPMI-8226, > 100 µM (inactive); in the experiment with OVCAR-3 it was 81.3 µM (inactive); with TK-10 it was > 100 µM (inactive). Further, the GI50 in the experiment with M14 was > 100 µM (inactive); with COLO 205 it was 43.9 µM (inactive); in the experiment with SK-MEL-28, > 100 µM (inactive); in the experiment on A498 it was 77.4 µM (inactive); in the experiment with SN12C, 49.4 µM (inactive); in the experiment on K562 it was 87.9 µM (inactive).
On to `COc1cccc(/N=N/C(=N/NC(=O)c2cc(Cl)ccc2O)c2ccc(N(CCC#N)CCC#N)cc2C)c1`, for which the GI50 was 21.4 µM (inactive) in the experiment with SNB-75; 17.5 µM (inactive) in the experiment on Malme-3M; 62.1 µM (inactive) with A549; 38.8 µM (inactive) with UO-31; 7.35 µM (inactive) in the experiment on T47D; 28.5 µM (inactive) with KM12. In addition, the GI50 is 35.1 µM (inactive) in the experiment with MDA-MB-231; 46.3 µM (inactive) in the experiment on ACHN; 61.2 µM (inactive) with RPMI-8226; 2.06 µM (inactive) in the experiment with OVCAR-3; 48.8 µM (inactive) with TK-10; 42.3 µM (inactive) in the experiment on M14. The GI50 with COLO 205 is 6.21 µM (inactive); in the experiment with A498 it was 26.4 µM (inactive); with SN12C, 27.5 µM (inactive); in the experiment on K562, 21.3 µM (inactive).
